Test results published in patent US10081624B2, “Heterocyclic compound” (Takeda Pharmaceutical Company Limited, priority 2014, dated 2018).

target: T1, HDAC6 enzyme (Homo sapiens, UniProt Q9UBN7); test: HDAC6 enzyme inhibitory assay (HDAC-Glo I/II Assay kit); format: biochemical; settings: 1 μM test compound; read-out: HDAC6 inhibitory rate (%) (1 μM)
T1 construct: prepared by transducing full length HDAC1 and HDAC6 genes into Sf-9 insect cells; GST; purchased SignalChem; host or cells: Sf-9 insect cells
T1 sequence (Q9UBN7 1-1215): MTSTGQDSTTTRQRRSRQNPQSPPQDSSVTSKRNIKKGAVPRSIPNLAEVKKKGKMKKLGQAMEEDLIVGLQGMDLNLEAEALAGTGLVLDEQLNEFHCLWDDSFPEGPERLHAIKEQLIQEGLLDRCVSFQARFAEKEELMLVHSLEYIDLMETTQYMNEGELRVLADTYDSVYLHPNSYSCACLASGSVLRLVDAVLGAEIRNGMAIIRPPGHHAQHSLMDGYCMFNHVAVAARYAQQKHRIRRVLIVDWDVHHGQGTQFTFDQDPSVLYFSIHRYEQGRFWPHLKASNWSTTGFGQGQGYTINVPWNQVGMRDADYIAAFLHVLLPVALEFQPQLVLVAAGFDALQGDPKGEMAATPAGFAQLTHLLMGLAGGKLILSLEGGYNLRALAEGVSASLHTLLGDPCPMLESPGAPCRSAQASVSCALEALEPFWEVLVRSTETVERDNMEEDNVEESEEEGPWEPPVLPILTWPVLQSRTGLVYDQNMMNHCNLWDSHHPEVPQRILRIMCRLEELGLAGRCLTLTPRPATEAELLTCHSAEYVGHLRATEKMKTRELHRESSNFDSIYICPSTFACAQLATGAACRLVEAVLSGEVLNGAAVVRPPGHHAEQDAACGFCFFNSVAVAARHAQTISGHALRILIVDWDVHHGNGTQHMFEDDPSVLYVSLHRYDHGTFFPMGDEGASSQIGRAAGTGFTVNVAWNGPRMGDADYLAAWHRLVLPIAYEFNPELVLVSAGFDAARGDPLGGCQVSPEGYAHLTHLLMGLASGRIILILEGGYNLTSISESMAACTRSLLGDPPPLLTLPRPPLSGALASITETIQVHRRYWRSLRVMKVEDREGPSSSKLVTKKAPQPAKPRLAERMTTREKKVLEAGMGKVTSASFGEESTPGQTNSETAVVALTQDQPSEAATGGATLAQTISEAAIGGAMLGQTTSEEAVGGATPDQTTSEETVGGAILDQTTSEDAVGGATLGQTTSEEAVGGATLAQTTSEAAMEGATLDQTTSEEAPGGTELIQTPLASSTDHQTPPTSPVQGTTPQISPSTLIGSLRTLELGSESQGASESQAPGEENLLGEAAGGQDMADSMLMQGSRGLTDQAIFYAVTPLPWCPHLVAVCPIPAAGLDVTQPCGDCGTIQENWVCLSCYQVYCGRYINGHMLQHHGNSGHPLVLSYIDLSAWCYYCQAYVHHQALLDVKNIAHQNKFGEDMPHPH
Protocol: HDAC1 enzyme and HDAC6 enzyme each prepared by transducing full length HDAC1 and HDAC6 genes into Sf-9 insect cells and purifying by GST affinity column were purchased from SignalChem. Using these enzymes, HDAC1 and/or HDAC6 enzyme inhibitory activities of the compound of the present invention were evaluated. Enzymes were used after preserved at −70° C. HDAC1 or HDAC6 enzyme inhibitory activity of the compound of the present invention was measured using HDAC-Glo™ I/II Assay kit (Promega) according to the following experimental method. The test compound diluted with assay buffer (24 mM Tris-HCl (pH 7.5), 1 mM MgCl2, 0.35 mM KCl, 135 mM NaCl, 0.6 mM Glutathione, 0.01% Tween-20) was added to a 384-well plate by each 2 μL. Then, HDAC1 or HDAC6 enzyme solution diluted with assay buffer was added thereto by each 4 μL, and the plate was incubated at room temperature for 60 min. After incubated, HDAC substrate-Developer solution prepared according to Promega protocol attached to the assay kit was added to the 384-well plate by each 2 μL, and the enzyme reaction was started. After reacting at room temperature for 20 min, luminescence level was measured using plate reader Envision (PerkinElmer). The inhibitory activity of each compound was calculated as a relative activity value when luminescence level in wells without enzyme is considered as 100% inhibition.

inhibition at 1 µM	SMILES
94%	O=C(NC[C@H]1COCCN1C(=O)C1CCOC1)c1ccc(-c2noc(C(F)(F)F)n2)cc1 (stereo partly drawn) [Example 79, N-(((3S)-4-(tetrahydrofuran-3-ylcarbonyl)morpholin-3-yl)methyl)-4-(5-(trifluoromethyl)-1,2,4-oxadiazol-3-yl)benzamide]
94%	O=C(NC[C@H]1COCCN1C(=O)C1CCOCC1)c1ccc(-c2noc(C(F)(F)F)n2)cc1 [Example 81, N-(((3S)-4-(tetrahydro-2H-pyran-4-ylcarbonyl)morpholin-3-yl)methyl)-4-(5-(trifluoromethyl)-1,2,4-oxadiazol-3-yl)benzamide]
36%	Cc1cc(C(=O)N2CCOC[C@H]2CNC(=O)c2ccc(-c3noc(C(F)(F)F)n3)cc2)cc(O)n1 [Example 122, N-(((3R)-4-(2-hydroxy-6-methylisonicotinoyl)morpholin-3-yl)methyl)-4-(5-(trifluoromethyl)-1,2,4-oxadiazol-3-yl)benzamide]
95%	O=C(NC[C@@H]1COCCN1C(=O)c1ccc(OCC(F)(F)F)nc1)c1ccc(-c2noc(C(F)(F)F)n2)cc1 [Example 123, N-(((3R)-4-((6-(2,2,2-trifluoroethoxy)pyridin-3-yl)carbonyl)morpholin-3-yl)methyl)-4-(5-(trifluoromethyl)-1,2,4-oxadiazol-3-yl)benzamide]
90%	O=C(NC[C@@H]1COCCN1C(=O)C1CCc2ccccc2O1)c1ccc(-c2noc(C(F)(F)F)n2)cc1 (stereo partly drawn) [Example 124, N-(((3R)-4-(3,4-dihydro-2H-chromen-2-ylcarbonyl)morpholin-3-yl)methyl)-4-(5-(trifluoromethyl)-1,2,4-oxadiazol-3-yl)benzamide]
88%	O=C(NC[C@@H]1COCCN1C(=O)c1cc2ncccn2n1)c1ccc(-c2noc(C(F)(F)F)n2)cc1 [Example 126, N-(((3R)-4-(pyrazolo[1,5-a]pyrimidin-2-ylcarbonyl)morpholin-3-yl)methyl)-4-(5-(trifluoromethyl)-1,2,4-oxadiazol-3-yl)benzamide]
90%	N#CC1(C(=O)N2CCOC[C@H]2CNC(=O)c2ccc(-c3noc(C(F)(F)F)n3)cc2)CC1 [Example 127, N-(((3R)-4-((1-cyanocyclopropyl)carbonyl)morpholin-3-yl)methyl)-4-(5-(trifluoromethyl)-1,2,4-oxadiazol-3-yl)benzamide]
53%	O=C(NC[C@@H]1COCCN1C(=O)C(c1ccccc1)c1ccccc1)c1ccc(-c2noc(C(F)(F)F)n2)cc1 [Example 129, N-(((3R)-4-(diphenylacetyl)morpholin-3-yl)methyl)-4-(5-(trifluoromethyl)-1,2,4-oxadiazol-3-yl)benzamide]
94%	O=C(NC[C@@H]1COCCN1C(=O)COc1ccccc1)c1ccc(-c2noc(C(F)(F)F)n2)cc1 [Example 130, N-(((3R)-4-(phenoxyacetyl)morpholin-3-yl)methyl)-4-(5-(trifluoromethyl)-1,2,4-oxadiazol-3-yl)benzamide]
87%	Cc1oncc1C(=O)N1CCOC[C@H]1CNC(=O)c1ccc(-c2noc(C(F)(F)F)n2)cc1 [Example 131, N-(((3R)-4-((5-methyl-1,2-oxazol-4-yl)carbonyl)morpholin-3-yl)methyl)-4-(5-(trifluoromethyl)-1,2,4-oxadiazol-3-yl)benzamide]
91%	Cc1cc(C(=O)N2CCOC[C@H]2CNC(=O)c2ccc(-c3noc(C(F)(F)F)n3)cc2)n(C)n1 [Example 135, N-(((3R)-4-((1,3-dimethyl-1H-pyrazol-5-yl)carbonyl)morpholin-3-yl)methyl)-4-(5-(trifluoromethyl)-1,2,4-oxadiazol-3-yl)benzamide]
92%	Cn1nc(C(F)(F)F)cc1C(=O)N1CCOC[C@H]1CNC(=O)c1ccc(-c2noc(C(F)(F)F)n2)cc1 [Example 136, N-(((3R)-4-((1-methyl-3-(trifluoromethyl)-1H-pyrazol-5-yl)carbonyl)morpholin-3-yl)methyl)-4-(5-(trifluoromethyl)-1,2,4-oxadiazol-3-yl)benzamide]
93%	Cn1ccc(C(=O)N2CCOC[C@H]2CNC(=O)c2ccc(-c3noc(C(F)(F)F)n3)cc2)n1 [Example 137, N-(((3R)-4-((1-methyl-1H-pyrazol-3-yl)carbonyl)morpholin-3-yl)methyl)-4-(5-(trifluoromethyl)-1,2,4-oxadiazol-3-yl)benzamide]
85%	Cn1cc(C(=O)N2CCOC[C@H]2CNC(=O)c2ccc(-c3noc(C(F)(F)F)n3)cc2)cn1 [Example 138, N-(((3R)-4-((1-methyl-1H-pyrazol-4-yl)carbonyl)morpholin-3-yl)methyl)-4-(5-(trifluoromethyl)-1,2,4-oxadiazol-3-yl)benzamide]
63%	Cc1nn(C)c(C)c1C(=O)N1CCOC[C@H]1CNC(=O)c1ccc(-c2noc(C(F)(F)F)n2)cc1 [Example 139, 4-(5-(trifluoromethyl)-1,2,4-oxadiazol-3-yl)-N-(((3R)-4-((1,3,5-trimethyl-1H-pyrazol-4-yl)carbonyl)morpholin-3-yl)methyl)benzamide]
92%	Cc1nnsc1C(=O)N1CCOC[C@H]1CNC(=O)c1ccc(-c2noc(C(F)(F)F)n2)cc1 [Example 140, N-(((3R)-4-((4-methyl-1,2,3-thiadiazol-5-yl)carbonyl)morpholin-3-yl)methyl)-4-(5-(trifluoromethyl)-1,2,4-oxadiazol-3-yl)benzamide]
89%	Cc1ncsc1C(=O)N1CCOC[C@H]1CNC(=O)c1ccc(-c2noc(C(F)(F)F)n2)cc1 [Example 141, N-(((3R)-4-((4-methyl-1,3-thiazol-5-yl)carbonyl)morpholin-3-yl)methyl)-4-(5-(trifluoromethyl)-1,2,4-oxadiazol-3-yl)benzamide]
93%	O=C(NC[C@@H]1COCCN1C(=O)c1cc[nH]n1)c1ccc(-c2noc(C(F)(F)F)n2)cc1 [Example 143, N-(((3R)-4-(1H-pyrazol-3-ylcarbonyl)morpholin-3-yl)methyl)-4-(5-(trifluoromethyl)-1,2,4-oxadiazol-3-yl)benzamide]
94%	Cc1ccsc1C(=O)N1CCOC[C@H]1CNC(=O)c1ccc(-c2noc(C(F)(F)F)n2)cc1 [Example 146, N-(((3R)-4-((3-methyl-2-thienyl)carbonyl)morpholin-3-yl)methyl)-4-(5-(trifluoromethyl)-1,2,4-oxadiazol-3-yl)benzamide]
90%	O=C(NC[C@@H]1COCCN1C(=O)C1CCCO1)c1ccc(-c2noc(C(F)(F)F)n2)cc1 (stereo partly drawn) [Example 150, N-(((3R)-4-(tetrahydrofuran-2-ylcarbonyl)morpholin-3-yl)methyl)-4-(5-(trifluoromethyl)-1,2,4-oxadiazol-3-yl)benzamide]
90%	O=C(NC[C@@H]1COCCN1C(=O)C1CCOC1)c1ccc(-c2noc(C(F)(F)F)n2)cc1 (stereo partly drawn) [Example 151, N-(((3R)-4-(tetrahydrofuran-3-ylcarbonyl)morpholin-3-yl)methyl)-4-(5-(trifluoromethyl)-1,2,4-oxadiazol-3-yl)benzamide]
89%	Cn1nccc1C(=O)N1CCOC[C@H]1CNC(=O)c1ccc(-c2noc(C(F)(F)F)n2)cc1 [Example 154, N-(((3R)-4-((1-methyl-1H-pyrazol-5-yl)carbonyl)morpholin-3-yl)methyl)-4-(5-(trifluoromethyl)-1,2,4-oxadiazol-3-yl)benzamide]
